Reference: ChEMBL document CHEMBL3132774, “The advantage of biosensor analysis over enzyme inhibition studies for slow dissociating inhibitors characterization of hydroxamate-based matrix metalloproteinase-12 inhibitors” (Medchemcomm, 2013)

Tests used:
[1] = molecular target: T1, Macrophage metalloelastase (Homo sapiens, UniProt P39900); assay: Inhibition of human recombinant MMP12 using Mca-Pro-Leu-Gly-Leu-Dpa-Ala-Arg-NH2 as substrate incubated for 10 mins prior to substrate addition by spectrophotometry; details: read-out: Ki(app)
Target sequence in this assay (P39900 whole entry): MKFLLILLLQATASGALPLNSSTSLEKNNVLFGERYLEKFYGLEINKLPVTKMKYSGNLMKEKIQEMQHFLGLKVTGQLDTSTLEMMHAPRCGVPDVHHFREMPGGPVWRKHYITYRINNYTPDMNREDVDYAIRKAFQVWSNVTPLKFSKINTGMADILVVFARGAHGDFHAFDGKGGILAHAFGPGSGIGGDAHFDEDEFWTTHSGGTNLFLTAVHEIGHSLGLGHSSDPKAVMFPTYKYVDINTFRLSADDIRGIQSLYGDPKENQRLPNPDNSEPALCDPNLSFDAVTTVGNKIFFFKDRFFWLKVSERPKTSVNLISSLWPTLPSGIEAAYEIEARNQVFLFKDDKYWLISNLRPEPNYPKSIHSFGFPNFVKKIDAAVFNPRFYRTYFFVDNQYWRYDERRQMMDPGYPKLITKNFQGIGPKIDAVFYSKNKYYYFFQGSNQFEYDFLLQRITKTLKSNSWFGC

[2] = molecular target: T1, Macrophage metalloelastase; assay: Time dependent inhibition of human recombinant MMP12 by progress curve enzyme inhibition assay; details: read-out: Ki(app)
Target sequence in this assay (P39900 whole entry): as above

[3] = molecular target: T1, Macrophage metalloelastase; assay: Inhibition of human recombinant MMP12 by SPR assay
Target sequence in this assay (P39900 106-470 limits assumed): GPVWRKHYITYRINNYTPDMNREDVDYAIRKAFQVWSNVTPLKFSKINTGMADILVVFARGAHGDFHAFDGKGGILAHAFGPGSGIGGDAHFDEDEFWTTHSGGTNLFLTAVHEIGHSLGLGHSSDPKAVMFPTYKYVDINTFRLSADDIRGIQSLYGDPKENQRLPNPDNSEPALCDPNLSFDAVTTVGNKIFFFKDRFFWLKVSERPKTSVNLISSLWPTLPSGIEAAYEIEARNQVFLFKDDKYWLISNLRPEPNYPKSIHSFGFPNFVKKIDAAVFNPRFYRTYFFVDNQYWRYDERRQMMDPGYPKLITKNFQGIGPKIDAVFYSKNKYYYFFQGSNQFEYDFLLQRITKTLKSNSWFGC

Row | SMILES | Ki [1] | Ki [2] | inhibition [3]
1 | CCN(CC)Cc1cc(C)c(N(Cc2ccccc2)S(=O)(=O)c2ccc(OC)cc2)cc1C(=O)NO | 30 nM | 3.53 nM | –
2 | CNC(=O)[C@H](Cc1ccccc1)NC(=O)[C@H](CCc1ccc(-c2cccnc2)cc1)CC(=O)O | 48 nM | – | Dose-dependent effect
3 | CNC(=O)[C@H](Cc1c[nH]c2ccccc12)NC(=O)[C@@H](CC(=O)NO)CC(C)C [ILOMASTAT] | 3.8 nM | 0.52 nM | Dose-dependent effect

These reach a lower Ki [1]. Values come first.

Row | Ki [1] | Ki [2] | inhibition [3] | SMILES
4 | 1.9 nM | 0.61 nM | – | COc1ccc(S(=O)(=O)N2CC(C)(C)CN(S(=O)(=O)c3ccc(OC)cc3)C2C(=O)NO)cc1
5 | 1 nM | – | – | CNC(=O)[C@H](Cc1ccccc1)NC(=O)[C@H](CCc1ccc(-c2cccnc2)cc1)CC(=O)NO
